Tests used:
[1] = tested on: mNotch1Δ1865; test: Western blot of NICD and mNotch1Δ1865 in transfected HeLa cell cultures; assay type: cell-based; conditions: BMS-299897 at 1 μM, BMS-433796 at 0.3 μM
Description: (§1) Inhibition of Notch signaling in cultured cells using a mouse-derived truncated Notch1 transgene, mNotch-ΔE [67], has been described in detail previously. Western blots for mNotchΔ1865 and NICD using 9E10 anti-c-myc monoclonal were carried out as previously described.
(§2) The effect of BMS-869780 on Notch processing was evaluated using transcriptional reporter assays and western blotting of NICD levels. HeLa cell cultures were transfected with mNotch1ΔE and CBF1-luciferase reporter constructs and treated with BMS-869780. In most replicates of this experiment, inhibition of luciferase reporter occurred with IC50 > 10 μM. […] To further evaluate the effect of BMS-869780 on Notch processing, western blots of cell cultures were carried out using mNotch1Δ1865, a truncated version of mNotch1ΔE that facilitates separation of NICD product from mNotch1 substrate on western blots. HeLa cell cultures were transfected with mNotch1Δ1865 and treated overnight with compounds before western blotting. […] Furthermore, the GSIs caused an increased level of mNotch1Δ1865 substrate, most likely due to inhibition of its turnover by γ-secretase, as previously noted by Blat et al..
(§3) (b) HeLa cell cultures were transfected with mNotchΔ1865, treated with compounds overnight, and cell extracts were evaluated by western blot using anti-c-myc-HRP conjugate. Lanes 1 and 9: DMSO (0.1%) vehicle. Lane 2: BMS-299897 at 1 μM. Lane 3: BMS-433796 at 0.3 μM. Lanes 4–8: BMS-869780 at 0.1, 0.3, 1, 3, and 10 μM, respectively.

[2] = tested on: Aβ1-40 (H4-APPsw); test: Aβ1-40 time-resolved fluorescence immunoassay in H4-APPsw cell cultures; assay type: cell-based, human; conditions: Homo sapiens; H4-APPsw cultures treated overnight
Description: (§4) H4-APPsw cell cultures were maintained on Dulbecco's modified Eagle's medium (DMEM) supplemented with L-glutamine (2 mM), fetal bovine serum (10%), and G418 (100 μg/mL). […] Aβ1-42 and Aβ1-40 assays, and Notch inhibition assays, were carried out as described previously. Mouse embryonic fibroblasts deficient in PS1 and PS2 (MEF dKO) were passaged twice per week in DMEM/F-12 medium, consisting of a 1 : 1 mixture of DMEM and F-12 nutrient mixture supplemented with 10% fetal bovine serum, penicillin, and streptomycin. For expression of human presenilin-1 in MEF dKO cells, the full length human presenilin-1 cDNA open reading frame was cloned between the BamHI and XhoI sites of the vector pcDNA5/FRT (Invitrogen), placing presenilin-1 expression under the control of the CMV promoter. The M146V mutated allele was introduced into the presenilin-1 expression construct by polymerase chain reaction using the oligonucleotide primers 5′-[…]-3′ and 5′-[…]-3 (QuikChange kit, Invitrogen). MEF dKO cultures were cotransfected with DNA constructs expressing APP-CTF, encoding the C-terminal 99 amino acids of APP [61] and either the human presenilin-1 or presenilin-1 M146V allele. Transfected cultures were incubated overnight at 37°C in 5% CO2 atmosphere and then harvested, resuspended in DMEM/F-12 medium, dispensed into 96-well culture plates, and incubated for 6 hours at 37°C in 5% CO2 atmosphere. Culture medium was then replaced with Ultraculture serum free medium (Lonza, Rockland, ME) with or without compounds at a range of concentrations and incubated overnight.
(§5) IC50 determinations for Aβ1-42 and Aβ1-40 in H4-APPsw cultures in 384-well format were determined using homogeneous time-resolved fluorescence immunoassays as previously described. The principle of these assays is illustrated in Figures 1(c) and 1(d). In other experiments using H4-APPsw cultures, Aβ was quantified by ELISA; for Aβ1-42 the combination of monoclonal antibodies was 26D6 and 565-HRP; for Aβ1-40 it was TSD and 26D6-HRP, and for Aβ1-x it was 4G8 and 26D6-HRP. In some experiments a novel 4-plex Aβ electrochemiluminescence immunoassay was used (Mesoscale Discovery catalog number N45ZA-1). Briefly, the 4-plex was carried out in 96-well format, with 4 separate spots of capture antibodies in each well. […] For Aβ in transiently transfected PS1/PS2 dKO fibroblasts, Aβ1-42 was quantified using an ELISA kit (WACO), and Aβ1-40 was quantified by ELISA as described above for H4-APPsw cultures. […] For the rat and mouse experiments illustrated in Figures 7 and 8, brain samples were prepared by solid phase extraction, and endogenous rat brain Aβ1-42 and Aβ1-40 were quantified by ELISA as previously described for wild type mice. […]

[3] = tested on: Aβ1-42 (H4-APPsw); test: Aβ1-42 time-resolved fluorescence immunoassay in H4-APPsw cell cultures; assay type: cell-based, human; conditions: Homo sapiens; H4-APPsw cultures treated overnight
Description: as §4, §5

[4] = tested on: mNotch1ΔE; test: Notch signaling CBF1-luciferase reporter assay in HeLa cells transfected with mNotch1ΔE; assay type: cell-based
Description: as §1, §2, §3

Structure (SMILES): C[C@H](NC(=O)[C@@H](O)c1cc(F)cc(F)c1)C(=O)N[C@@H]1C(=O)N(C)N=Cc2ccccc21 [BMS-433796, (S)-2-((S)-2-(3,5-difluorophenyl)-2-hydroxyacetamido)-N-((S,Z)-3-methyl-4-oxo-4,5-dihydro-3H-benzo[d][1,2]diazepin-5-yl)propanamide, reference compound]
- NICD levels [1]: greatly reduced NICD
- IC50 [2]: 0.19 nM
- IC50 [3]: 0.16 nM
- Notch/Aβ1-42 IC50 ratios ([4]; GSIs): 13
- IC50 ([4]; HeLa, treated overnight): 2.1 nM
- mNotch1ΔE/Aβ1-42 ([4]; ratio of IC50 values): 13x

From article PMC4109680, “Identification and Preclinical Pharmacology of the γ-Secretase Modulator BMS-869780” (International Journal of Alzheimer's Disease, 2014)
